Laboratory results published in patent US20240317741A1, “NAPHTHYRIDINE DERIVATIVE AS ATR INHIBITOR AND METHOD FOR PREPARING SAME” (WIGEN BIOMEDICINE TECHNOLOGY (SHANGHAI) CO., LTD., priority 2021, published 2024).
Values belong to the compound of their own block, whether it stands above or below them.

How the values were obtained:
[1] = test system: Human colon cancer LOVO cells; test: In vivo efficacy in LoVo model; set-up: species or system nude mouse; conditions: LoVo model in nude mice, 20 mpk BID PO, days 1-3, 8-10, 15-17 and day 21
Method: After being subcultured, the cells were collected when they reached the desired amount. 1×10^7 LOVO cells were injected into the left dorsal side of each nude mouse, and the animals were randomly grouped for administration after tumors grew to 100-200 mm^3. The groups were as follows: a solvent control group of 8 mice and a compound group of 8 mice. The compounds were administered orally 3 days a week and interrupted for 4 days, for 21 consecutive days. The vehicle was a 0.5% MC suspension containing 1% tween-80. On Tuesday and Thursday each week, tumor volumes and body weight of the mice were measured, and the nude mice were sacrificed on day 21 after the administration. […] The toxicity of the compounds was evaluated according to the body weight of the mice.

[2] = Liver microsomal stability (mouse); type: in vitro ADME; conditions: mouse liver microsomes, 1 μM compound, NADPH regeneration system, 37° C.; read-out: T1/2 (min) Mouse
Method: (§1) After 1 μM compound was incubated with 500 µg/mL of human or mouse liver microsomes and a NADPH regeneration system at 37° C. for different times, respectively, LC-MS-MS was used to analyze the remaining amount of the compound and calculate T1/2.

[3] = test system: MIA PaCa-2 cells; test: In-vitro anti-proliferative activity in combination with gemcitabine against MIA PaCa-2 cells; type: cell-based; conditions: in combination with 20 nM gemcitabine, 72 h after dosing
Method: (§2) MIA PaCa-2 cells were seeded on a 384-well plate at 3000 cells/well, and 20 nM gemcitabine was added. After overnight adherence culture, DMSO or the compounds serially diluted 1:5 from 100 nM were added. […] The inhibition percentage of viable cells by the compounds was calculated by comparing with the DMSO group, and the IC50 value was calculated.

[4] = test system: MIA PaCa-2 cells; test: In-vitro anti-proliferative activity against MIA PaCa-2 cells; type: cell-based; conditions: Homo sapiens, 72 h after dosing, intracellular ATP content
Method: as §2, with “cells/well.” for “cells/well, and 20 nM gemcitabine was added.”, “5 μM” for “100 nM”

[5] = Liver microsomal stability (human); type: in vitro ADME; conditions: human liver microsomes, 1 μM compound, NADPH regeneration system, 37° C.; read-out: T1/2 (min) Human
Method: as §1

[6] = test system: Human colon cancer HT29 cells; test: In vivo efficacy in HT-29 model, alone and with gemcitabine; set-up: species or system nude mouse; conditions: HT-29 model in nude mice, day 21
Method: After being subcultured, the cells were collected when they reached the desired amount. 1×10^7 HT29 cells were injected into the left dorsal side of each nude mouse, and the animals were randomly grouped for administration after tumors grew to 100-200 mm^3. The groups were as follows: a solvent control group of 6 mice, a single drug group of 15 mg/kg gemcitabine (GMC), and a combination group of 15 mg/kg gemcitabine and a compound. Gemcitabine was administered intraperitoneally with PBS as a vehicle once a week. The compounds were administered 3 days a week and interrupted for 4 days (3 on/4 off), for 21 consecutive days, and the vehicle was a 0.5% MC suspension containing 1% tween-80. On Tuesday and Thursday each week, tumor volumes and body weight of the mice were measured, and the nude mice were sacrificed on day 21 after the administration. […] The toxicity of the compounds was evaluated according to the body weight of the mice.

[7] = In vivo pharmacokinetic experiment in mice; set-up: species or system CD-1 female mice; conditions: female, CD-1, mouse, plasma; for Cmax: read-out: Cmax; for Tmax: read-out: Tmax; for Vd: read-out: Vdss
Method: CD-1 female mice aged 7 to 10 weeks were intravenously administered and orally administered at a dose of 2 mg/kg and 10 mg/kg, respectively. The mice were fasted for at least 12 h before the administration and given food 4 h after the administration, and they were given ad libitum access to water during the experiment.
On the day of the experiment, animals in the intravenous group were administered the corresponding compound by single injection via the tail vein at an administration volume of 10 mL/kg, and animals in the oral group were administered the corresponding compound by single intragastric injection at an administration volume of 10 mL/kg. The animals were weighed before administration, and the administration volume was calculated according to the body weight. The sample collection time was 0.083 h, 0.167 h, 0.5 h, 1 h, 2 h, 4 h, 8 h and 24 h. About 200 μL of whole blood was collected through the orbital venous plexus at each time point and used to prepare plasma for concentration determination by high performance liquid chromatography-tandem mass spectrometry (LC-MS/MS). The plasma concentrations were processed using a non-compartmental model of Winnolin pharmacokinetic software, and the pharmacokinetic parameters were calculated using a linear-log trapezoidal method.

[8] = compound 20 mpk BID PO 3 on/4 off + GMC 15 mpk QW IP
[9] = single agent, 20 mpk BID PO, 3on/4off

half-life at 1 μM [2]: 9.14 min
IC50 [3]: 1.48 nM
IC50 [4]: 1000 to 5000 nM
half-life at 1 μM [5]: 27.2 min
Compound: C[C@@H]1COCCN1c1cc(C2(C#N)CCCC2)c2ccnc(-c3ccn[nH]3)c2n1 [Compound 27]
TGI(%) [1]: 62.7%

AUC(0-t) ([7]; Oral administration (10 mg/kg)): 937 ng·h/mL
bioavailability ([7]; Oral administration (10 mg/kg)): 31.8%
half-life ([7]; Oral administration (10 mg/kg)): 41.4 min
Cmax ([7]; Oral administration (10 mg/kg)): 1010 ng/mL
Tmax ([7]; Oral administration (10 mg/kg)): 30 min
AUC(0-t) ([7]; iv, Injection (2 mg/kg)): 588 ng·h/mL
clearance ([7]; iv, Injection (2 mg/kg)): 56.6 mL/min/kg
half-life ([7]; iv, Injection (2 mg/kg)): 96.6 min
Vd ([7]; iv, Injection (2 mg/kg)): 1.27 L/kg
half-life at 1 μM [2]: 19.6 min
IC50 [3]: 1.08 nM
IC50 [4]: < 1000 nM
half-life at 1 μM [5]: 632 min
Compound: C[C@@H]1COCCN1c1cc(C2(C#N)CCC(O)CC2)c2ccnc(-c3ccn[nH]3)c2n1 (stereo partly drawn) [Compound 33, (R)-4-hydroxy-1-(2-(3-methylmorpholine)-8-(1H-pyrazol-5-yl)-1,7-naphthyridin-4-yl)cyclohexane-1-carbonitrile]
TGI(%) [6, 8]: 82.3%
TGI(%) [6, 9]: 57.4%
TGI(%) [1]: 79.1%

half-life at 1 μM [2]: 52.4 min
IC50 [3]: 0.624 nM
IC50 [4]: < 1000 nM
half-life at 1 μM [5]: 61.4 min
Compound: C[C@@H]1COCCN1c1cc(C2(C#N)CCC(N(C)C)CC2)c2ccnc(-c3ccn[nH]3)c2n1 (stereo partly drawn) [Compound 34, (R)-4-(dimethylamino)-1-(2-(3-methylmorpholine)-8-(1H-pyrazol-5-yl)-1,7-naphthyridin-4-yl)cyclohexane-1-carbonitrile]
TGI(%) [6, 8]: 78.1%
TGI(%) [6, 9]: 58.3%
TGI(%) [1]: 81.4%

IC50 [3]: 0.661 nM
IC50 [4]: < 1000 nM
Compound: C[C@@H]1COCCN1c1cc(C2(C#N)CCC(N3CCCC3)CC2)c2ccnc(-c3ccn[nH]3)c2n1 (stereo partly shown) [Compound 35]

AUC(0-t) ([7]; Oral administration (10 mg/kg)): 669 ng·h/mL
bioavailability ([7]; Oral administration (10 mg/kg)): 30.2%
half-life ([7]; Oral administration (10 mg/kg)): 87 min
Cmax ([7]; Oral administration (10 mg/kg)): 299 ng/mL
Tmax ([7]; Oral administration (10 mg/kg)): 30 min
AUC(0-t) ([7]; iv, Injection (2 mg/kg)): 444 ng·h/mL
clearance ([7]; iv, Injection (2 mg/kg)): 75.1 mL/min/kg
half-life ([7]; iv, Injection (2 mg/kg)): 16.2 min
Vd ([7]; iv, Injection (2 mg/kg)): 1.61 L/kg
half-life at 1 μM [2]: 7.78 min
IC50 [4]: < 1000 nM
half-life at 1 μM [5]: 24.8 min
Compound: COC1CCC(C#N)(c2cc(N3CCOC[C@H]3C)nc3c(-c4ccn[nH]4)nccc23)CC1 (stereo partly drawn) [Compound 53, (R)-4-methoxy-1-(2-(3-methylmorpholine)-8-(1H-pyrazol-5-yl)-1,7-naphthyridin-4-yl)cyclohexane-1-carbonitrile]

IC50 [4]: < 1000 nM
Compound: C[C@@H]1COCCN1c1cc(C2(C#N)CCC(OCC3CC3)CC2)c2ccnc(-c3ccn[nH]3)c2n1 (stereo partly shown) [Compound 56]

IC50 [4]: < 1000 nM
Compound: C[C@@H]1COCCN1c1cc(C2(C#N)CCC(OC3CC3)CC2)c2ccnc(-c3ccn[nH]3)c2n1 (stereo partly shown) [Compound 57]

IC50 [4]: < 1000 nM
Compound: C[C@@H]1COCCN1c1cc(C2(C#N)CCC(OC3CCC3)CC2)c2ccnc(-c3ccn[nH]3)c2n1 (stereo partly shown) [Compound 58]

IC50 [4]: < 1000 nM
Compound: C[C@@H]1COCCN1c1cc(C2(C#N)CCC(OC3CCCC3)CC2)c2ccnc(-c3ccn[nH]3)c2n1 (stereo partly shown) [Compound 59]

IC50 [4]: < 1000 nM
Compound: C[C@@H]1COCCN1c1cc(C2(C#N)CCC(N)CC2)c2ccnc(-c3ccn[nH]3)c2n1 (stereo partly shown) [Compound 60]

IC50 [4]: < 1000 nM
Compound: CNC1CCC(C#N)(c2cc(N3CCOC[C@H]3C)nc3c(-c4ccn[nH]4)nccc23)CC1 (stereo partly shown) [Compound 61]

IC50 [4]: < 1000 nM
Compound: CCN(CC)C1CCC(C#N)(c2cc(N3CCOC[C@H]3C)nc3c(-c4ccn[nH]4)nccc23)CC1 (stereo partly shown) [Compound 62]

IC50 [4]: < 1000 nM
Compound: C[C@@H]1COCCN1c1cc(C2(C#N)CCC(N3CCC3)CC2)c2ccnc(-c3ccn[nH]3)c2n1 (stereo partly shown) [Compound 63]

IC50 [4]: < 1000 nM
Compound: C[C@@H]1COCCN1c1cc(C2(C#N)CCC(N3CCCCC3)CC2)c2ccnc(-c3ccn[nH]3)c2n1 (stereo partly shown) [Compound 64]

IC50 [4]: < 1000 nM
Compound: C[C@@H]1COCCN1c1cc(C2(C#N)CCC(N3CCOCC3)CC2)c2ccnc(-c3ccn[nH]3)c2n1 (stereo partly shown) [Compound 65]

Compound: CCN1CCC(C#N)(c2cc(N3CCOC[C@H]3C)nc3c(-c4ccn[nH]4)nccc23)CC1 [Compound 66]
IC50 [4]: < 1000 nM

Compound: CC(C)N1CCC(C#N)(c2cc(N3CCOC[C@H]3C)nc3c(-c4ccn[nH]4)nccc23)CC1 [Compound 67]
IC50 [4]: < 1000 nM

Compound: C[C@@H]1COCCN1c1cc(C2(C#N)CCN(C3CCC3)CC2)c2ccnc(-c3ccn[nH]3)c2n1 [Compound 68]
IC50 [4]: < 1000 nM

Compound: C[C@@H]1COCCN1c1cc(C2(C#N)CCN(C3CCCC3)CC2)c2ccnc(-c3ccn[nH]3)c2n1 [Compound 69]
half-life at 1 μM [2]: 7.52 min
IC50 [4]: < 1000 nM
half-life at 1 μM [5]: 5.9 min

Compound: C[C@@H]1COCCN1c1cc(C2(C#N)CCN(C3COC3)CC2)c2ccnc(-c3ccn[nH]3)c2n1 [Compound 70]
IC50 [4]: < 1000 nM

Compound: C[C@@H]1COCCN1c1cc(C2(C#N)CCN(C3CN(C)C3)CC2)c2ccnc(-c3ccn[nH]3)c2n1 [Compound 72]
IC50 [4]: < 1000 nM

Compound: C[C@@H]1COCCN1c1cc(C2(C#N)CCN(C3CCOC3)CC2)c2ccnc(-c3ccn[nH]3)c2n1 (stereo partly shown) [Compound 73]
IC50 [4]: < 1000 nM

Compound: C[C@@H]1COCCN1c1cc(C2(C#N)CCN(C3CCN(C)C3)CC2)c2ccnc(-c3ccn[nH]3)c2n1 (stereo partly shown) [Compound 74]
IC50 [4]: < 1000 nM

Compound: COCCN1CCC(C#N)(c2cc(N3CCOC[C@H]3C)nc3c(-c4ccn[nH]4)nccc23)CC1 [Compound 75]
IC50 [4]: < 1000 nM

Compound: C[C@@H]1COCCN1c1cc(C2(C#N)CCN(CC(N)=O)CC2)c2ccnc(-c3ccn[nH]3)c2n1 [Compound 76]
IC50 [4]: < 1000 nM

Compound: C[C@@H]1COCCN1c1cc(C2(C#N)CCN(CC(=O)N(C)C)CC2)c2ccnc(-c3ccn[nH]3)c2n1 [Compound 77]
IC50 [4]: < 1000 nM

Compound: C[C@@H]1COCCN1c1cc(C2(C#N)CCN(CCN(C)C)CC2)c2ccnc(-c3ccn[nH]3)c2n1 [Compound 78]
IC50 [4]: < 1000 nM

Compound: C[C@@H]1COCCN1c1cc(C2(C#N)CCN(CCS(C)(=O)=O)CC2)c2ccnc(-c3ccn[nH]3)c2n1 [Compound 80]
IC50 [4]: < 1000 nM

Compound: CCOP(=O)(CCN1CCC(C#N)(c2cc(N3CCOC[C@H]3C)nc3c(-c4ccn[nH]4)nccc23)CC1)OCC [Compound 81]
IC50 [4]: < 1000 nM

Compound: C[C@@H]1COCCN1c1cc(C2(C#N)CCN(CC3CC3)CC2)c2ccnc(-c3ccn[nH]3)c2n1 [Compound 82]
IC50 [4]: < 1000 nM

Compound: C[C@@H]1COCCN1c1cc(C2(C#N)CCN(CC3CCC3)CC2)c2ccnc(-c3ccn[nH]3)c2n1 [Compound 83]
IC50 [4]: < 1000 nM

Compound: C[C@@H]1COCCN1c1cc(C2(C#N)CCN(CC3CCOC3)CC2)c2ccnc(-c3ccn[nH]3)c2n1 (stereo partly shown) [Compound 84]
IC50 [4]: < 1000 nM

IC50 [4]: < 1000 nM
Compound: C[C@@H]1COCCN1c1cc(C2(C#N)CC3CCC(C2)O3)c2ccnc(-c3ccn[nH]3)c2n1 (stereo partly drawn) [Compound 85, 3-(2-((R)-3-methylmorpholino)-8-(1H-pyrazol-5-yl)-1,7-naphthyridin-4-yl)-8-oxabicyclo[3.2.1]octane-3-carbonitrile]

Compound: Nc1ccn([C@@H]2O[C@H](CO)[C@@H](O)C2(F)F)c(=O)n1 [GMC, gemcitabine, reference compound]
TGI(%) ([6]; GMC alone 15 mpk QW IP, once a week): 50.7%
